Laboratory results taken from US10030006B2, “Coumarin based Hsp90 inhibitors with urea and ether substituents” (University of Kansas, priority 2013, dated 2018).
pIC50: −log10 of the molar value. Read-outs that look alike come from different tables or passages of the source.

Columns and labels:
Type in all cases: cell-based
[1] = test system: SKBr3 (estrogen receptor negative, Her2 over-expressing breast cancer cells); assay: Anti-proliferation assay (MTS/PMS, 72 h), SKBr3; settings: Table 6, substituted phenyl ureas, Breast Cancer, read-out: IC50 SKBr3
Protocol: (§1) Cells were maintained in a 1:1 mixture of Advanced DMEM/F12 (Gibco) supplemented with non-essential amino acids, L-glutamine (2 mM), streptomycin (500 μg/mL), penicillin (100 units/mL), and 10% FBS. Cells were grown to confluence in a humidified atmosphere (37° C., 5% CO2), seeded (2000/well, 100 μL) in 96-well plates, and allowed to attach overnight. Compound at varying concentrations in DMSO (1% DMSO final concentration) was added, and cells were returned to the incubator for 72 h. At 72 h, the number of viable cells was determined using an MTS/PMS cell proliferation kit (Promega) per the manufacturer's instructions. Cells incubated in 1% DMSO were used at 100% proliferation, and values were adjusted accordingly. IC50 values were calculated from separate experiments performed in triplicate using GraphPad Prism.
(§2) The anti-proliferative activity of these compounds is evaluated against two breast cancer cell lines, SKBr3 (estrogen receptor negative, Her2 over-expressing breast cancer cells) and MCF-7 (estrogen receptor positive breast cancer cells).

[2] = test system: MCF-7 (estrogen receptor positive breast cancer cells); assay: Anti-proliferation assay (MTS/PMS, 72 h), MCF-7; settings: Table 6, substituted phenyl ureas, Breast Cancer, read-out: IC50 MCF-3
Protocol: as §1, §2

HCT-116 = assay: Anti-proliferation assay, HCT-116; settings: Table 6, substituted phenyl ureas
Protocol: as §1

PC-3 = assay: Anti-proliferation assay, PC-3; settings: Table 6, substituted phenyl ureas, Prostate Cancer
Protocol: as §1

A-549 = assay: Anti-proliferation assay, A-549; settings: Table 6, substituted phenyl ureas
Protocol: as §1

MDA1986 = assay: Anti-proliferation assay, MDA1986; settings: Table 6, substituted phenyl ureas, HSNCC
Protocol: as §1

JMAR = assay: Anti-proliferation assay, JMAR; settings: Table 6, substituted phenyl ureas, HSNCC
Protocol: as §1

MDAMB231 = assay: Anti-proliferation assay, MDAMB231; settings: Table 6, substituted phenyl ureas, Tri-Neg
Protocol: as §1

DRO81-1 = assay: Anti-proliferation assay, DRO81-1; settings: Table 6, substituted phenyl ureas; Thyroid
Protocol: as §1

MRC5 = assay: Anti-proliferation assay, MRC5 (normal)
Protocol: as §1

HMLE = assay: Anti-proliferation assay, HMLE (normal); settings: Table 6, substituted phenyl ureas
Protocol: as §1

[3] = Homo sapiens, MRC5, Table 6, substituted phenyl ureas

| SMILES | pIC50 ([1]; Homo sapiens, SK-BR-3) | pIC50 ([2]; Homo sapiens, MCF7) | pIC50 (HCT-116; Homo sapiens, HCT-116) | pIC50 (PC-3; Homo sapiens, PC-3) | pIC50 (A-549; Homo sapiens, A549) | pIC50 (MDA1986; MDA1986) | pIC50 (JMAR; JMAR) | pIC50 (MDAMB231; Homo sapiens, MDA-MB-231) | pIC50 (DRO81-1) | pIC50 (MRC5; [3]) | pIC50 (HMLE; HMLE) | other results |
| --- | --- | --- | --- | --- | --- | --- | --- | --- | --- | --- | --- | --- |
| Cc1ccc(NC(=O)Nc2cc3ccc(OC4CCN(C)CC4)c(C)c3oc2=O)c(C)c1 [2,4-dimethyl, 1-(2,4-dimethylphenyl)-3-(8-methyl-7-((1-methylpiperidin-4-yl)oxy)-2-oxo-2H-chromen-3-yl)urea] | 5.42 | 5.95 | 6.11 | 6.57 | 6.37 | 5.72 | 5.96 | 5.59 | 5.64 | 5.44 | < 4.60 | – |
| Cc1c(OC2CCN(C)CC2)ccc2cc(NC(=O)Nc3ccc(Cl)c(Cl)c3)c(=O)oc12 [3,4-dichloro, 1-(3,4-dichlorophenyl)-3-(8-methyl-7-((1-methylpiperidin-4-yl)oxy)-2-oxo-2H-chromen-3-yl)urea] | 6.19 | 5.75 | 4.77 | 5.69 | 5.74 | 5.59 | 5.17 | 5.54 | 4.88 | 5.68 | 5.82 | – |
| Cc1ccc(NC(=O)Nc2cc3ccc(OC4CCN(C)CC4)c(C)c3oc2=O)cc1C [3,4-dimethyl, 1-(3,4-dimethylphenyl)-3-(8-methyl-7-((1-methylpiperidin-4-yl)oxy)-2-oxo-2H-chromen-3-yl)urea] | 6.51 | 6.48 | 7.18 | 5.88 | 7.20 | 5.89 | 5.77 | 5.72 | 5.09 | 5.57 | 6.05 | – |
| Cc1c(OC2CCN(C)CC2)ccc2cc(NC(=O)Nc3cc(Cl)cc(Cl)c3)c(=O)oc12 [3,5-dichloro, 1-(3,5-dichlorophenyl)-3-(8-methyl-7-((1-methylpiperidin-4-yl)oxy)-2-oxo-2H-chromen-3-yl)urea] | 6.29 | 6.31 | 5.92 | 6.80 | 6.70 | 5.12 | 5.21 | 5.44 | 6.11 | < 4.60 | < 4.60 | – |
| Cc1cc(C)cc(NC(=O)Nc2cc3ccc(OC4CCN(C)CC4)c(C)c3oc2=O)c1 [3,5-dimethyl, 1-(3,5-dimethylphenyl)-3-(8-methyl-7-((1-methylpiperidin-4-yl)oxy)-2-oxo-2H-chromen-3-yl)urea] | 6.52 | 6.47 | 6.77 | 5.87 | 7.28 | 7.05 | 5.47 | 6.19 | 5.08 | 5.23 | 4.86 | – |
| COc1ccc(C(C)(C)C)cc1NC(=O)Nc1cc2ccc(OC3CCN(C)CC3)c(C)c2oc1=O [Compound 2-OMe-5-t-Bu, 1-(5-(tert-butyl)-2-methoxyphenyl)-3-(8-methyl-7-((1-methylpiperidin-4-yl)oxy)-2-oxo-2H-chromen-3-yl)urea] | 5.41 | 5.82 | 5.91 | 5.42 | 6.08 | 7.05 | 5.42 | 6.04 | 5.21 | 5.58 | 5.21 | – |
| Cc1c(OC2CCN(C)CC2)ccc2cc(NC(=O)Nc3cccc(Cl)c3)c(=O)oc12 [m-Cl, 1-(3-chlorophenyl)-3-(8-methyl-7-((1-methylpiperidin-4-yl)oxy)-2-oxo-2H-chromen-3-yl)urea] | 6.52 | 6.28 | 6.66 | 5.74 | 7.20 | 5.77 | 5.77 | 6.24 | 5.42 | 5.51 | 4.66 | – |
| Cc1c(OC2CCN(C)CC2)ccc2cc(NC(=O)Nc3ccc(Br)cc3)c(=O)oc12 [p-Br, 1-(4-bromophenyl)-3-(8-methyl-7-((1-methylpiperidin-4-yl)oxy)-2-oxo-2H-chromen-3-yl)urea] | 6.19 | 5.98 | 6.62 | 6.74 | 6.96 | 5.46 | 5.44 | 5.59 | 5.46 | 5.26 | 5.22 | – |
| Cc1c(OC2CCN(C)CC2)ccc2cc(NC(=O)Nc3ccc(C(C)(C)C)cc3)c(=O)oc12 [p-C(CH3)3, 1-(4-(tert-butyl)phenyl)-3-(8-methyl-7-((1-methylpiperidin-4-yl)oxy)-2-oxo-2H-chromen-3-yl)urea] | 6.03 | 6.02 | 6.68 | 6.85 | 7.04 | 6.24 | 6.31 | 6.30 | 6.15 | 5.74 | 4.84 | – |
| Cc1c(OC2CCN(C)CC2)ccc2cc(NC(=O)Nc3ccc(C(F)(F)F)cc3)c(=O)oc12 [p-CF3, 1-(8-methyl-7-((1-methylpiperidin-4-yl)oxy)-2-oxo-2H-chromen-3-yl)-3-(4-(trifluoromethyl)phenyl)urea] | 6.46 | 6.33 | 6.10 | 7.22 | 6.89 | 6.05 | 5.44 | 6.37 | 6.19 | 5.51 | 4.81 | – |
| Cc1ccc(NC(=O)Nc2cc3ccc(OC4CCN(C)CC4)c(C)c3oc2=O)cc1 [p-CH3, 1-(8-methyl-7-((1-methylpiperidin-4-yl)oxy)-2-oxo-2H-chromen-3-yl)-3-(p-tolyl)urea] | 6.57 | 6.54 | 7.23 | 6.09 | 7.77 | 5.49 | 5.46 | 6.04 | 4.79 | 5.18 | 5.48 | – |
| Cc1c(OC2CCN(C)CC2)ccc2cc(NC(=O)Nc3ccc(C(C)C)cc3)c(=O)oc12 [p-CH(CH3)2, 1-(4-isopropylphenyl)-3-(8-methyl-7-((1-methylpiperidin-4-yl)oxy)-2-oxo-2H-chromen-3-yl)urea] | 6.17 | 6.09 | 5.97 | 6.89 | 6.80 | 5.95 | 6.06 | 6.21 | 6.52 | 5.72 | 5.19 | – |
| Cc1c(OC2CCN(C)CC2)ccc2cc(NC(=O)Nc3ccc(C#N)cc3)c(=O)oc12 [p-CN, 1-(4-cyanophenyl)-3-(8-methyl-7-((1-methylpiperidin-4-yl)oxy)-2-oxo-2H-chromen-3-yl)urea] | 6.43 | 6.37 | 6.24 | 7.32 | 7.37 | 5.79 | 5.43 | 6.36 | 6.55 | 5.24 | 5.40 | – |
| CC(=O)c1ccc(NC(=O)Nc2cc3ccc(OC4CCN(C)CC4)c(C)c3oc2=O)cc1 [p-COCH3] | – | – | – | – | – | – | – | – | 4.88 | – | – | pIC50 [1]: 5.82; pIC50 [2]: 5.76; pIC50 (HCT-116): 6.60; pIC50 (PC-3): 5.56; pIC50 (A-549): 6.62; pIC50 (MDA1986): 5.47; pIC50 (JMAR): 4.92; pIC50 (MDAMB231): 6.12; pIC50 (MRC5; Table 6, substituted phenyl ureas): 5.11; pIC50 (HMLE): 5.10 |
| Cc1c(OC2CCN(C)CC2)ccc2cc(NC(=O)Nc3ccc(Cl)cc3)c(=O)oc12 [p-Cl, 1-(4-chlorophenyl)-3-(8-methyl-7-((1-methylpiperidin-4-yl)oxy)-2-oxo-2H-chromen-3-yl)urea] | 6.77 | 6.44 | 6.38 | 5.64 | 6.80 | < 4.60 | 5.21 | < 4.60 | 4.80 | < 4.60 | < 4.60 | – |
| Cc1c(OC2CCN(C)CC2)ccc2cc(NC(=O)Nc3ccc(F)cc3)c(=O)oc12 [p-F, 1-(4-fluorophenyl)-3-(8-methyl-7-((1-methylpiperidin-4-yl)oxy)-2-oxo-2H-chromen-3-yl)urea] | 6.32 | 6.02 | 7.21 | 5.48 | 5.97 | 8.00 | 5.07 | 7.30 | 4.70 | < 4.60 | < 4.60 | – |
